# Measured values reported in patent EP0804408B1, “NOVEL 4-SUBSTITUTED 2,6-DI-TERT-BUTYLPHENOL COMPOUNDS, PHARMACEUTICAL COMPOSITIONS CONTAINING SAME AND PREPARATION METHOD THEREFOR” (priority 1994, dated 1996).
# Marks after values point to notes of the source that are not given here.
# How the values were obtained:
# cellules MT4 = assay: Cytotoxicity control on MT4 cells (uncontaminated AVF1 samples, diluted and ultracentrifuged); type: cell-based, humaines; conditions: non contaminé, dilué et centrifugé, inoculated at dilution 1/4, 10 days culture
# Experimental: • Contrôles négatifs : • . Les cellules utilisées pour le titrage, non infectées (culture témoin). • . les trois concentrations de AVF1 utilisées dans l'étude, diluées en tampon NTE et ultracentrifugées. Ces échantillons (contrôles négatifs) ont été utilisés pour vérifier l'absence de toxicité due à des traces résiduelles de AVF1, sur les cellules MT4. • Contrôles positifs : • . Le VIH-1 dilué en milieu de culture à la dilution réalisée pour l'étude, immédiatement aliquoté et stocké à -80°C (contrôle positif). • . Le VIH-1 dilué en milieu de culture à la dilution réalisée pour l'étude, puis dilué en tampon NTE, ultracentrifugé, filtré sur un filtre de 0,45 µm, aliquoté, stocké à -80°C et titré ultérieurement (contrôle de centrifugation). • . Le VIH-1 dilué en milieu de culture à la dilution réalisée pour l'étude, laissé 10 minutes à température ambiante, puis dilué en tampon NTE, ultracentrifugé, filtré sur un filtre de 0,45 µm, aliquoté, stocké à -80°C et titré ultérieurement (contrôle expérimental).
# Le contrôle de toxicité a été réalisé dans des conditions identiques à celles décrites pour la méthode de titrage, mais en inoculant les cellules MT4 avec les échantillons non contaminés par le VIH-1 et décrits précédemment (contrôle négatif).
# Le critère de non toxicité du produit est établi a été établi en comparant l'aspect morphologique et la viabilité des cellules MT4 inoculées avec du milieu de culture (culture témoin) ou avec les échantillons non contaminés (contrôles négatifs) après 10 jours de culture.
# [1] = test system: NO-synthase inductible (iNOS); assay: iNOS induction test: nitrites in RAW264.7 supernatants by Griess reaction after nitrate reduction; type: cell-based, murins
# Description: Cette hypothèse a été contrôlée en dosant les nitrites dans des surnageants de culture de macrophages murins de lignées activées en présence de AVF1. Les nitrites ont été dosés par la réaction de Griess après réduction de tous le nitrates grâce à la nitrate réductase de Pseudomonas oleoverans (Granger et al., J. Immunol., 1991, 146, 1294-1302). La spécificité de la réaction a été prouvée par l'emploi d'un inhibiteur spécifique de la synthèse du monoxyde d'azote, la N^G-monométhyl-L-arginine (L-NMMA).
# Le test d'induction iNOS consiste à ensemencer les macrophages RAW264.7 dans des plaques à 24 puits à raison de 1 x 10^6 sous 1,6 ml. Après 24 heures de culture permettant d'obtenir un tapis cellulaire complet, AVF1, dilué de raison 10 dans des des doses ne donnant pas de toxicité cellulaire (de 10^-6 à 10^-8 %), est ajouté dans 100 µl par cupule soit sur des macrophages sans activateur, avec ou sans l'inhibiteur de iNOS (action directe du produit sur les macrophages) soit en présence des inducteurs, avec ou sans inhibiteur (action du produit sur des macrophages activés).
# Après 24 heures de culture, les surnageants sont prélevés, centrifugés 10 minutes à 100 g à température ambiantes pour éliminer les éventuels débris cellulaires puis utilisés pour le dosage des nitrites.
# Deux volumes des surnageants clarifiés sont réduits en présence d'un volume d'une suspension de Pseudomonas oleovorans à 100 mg/ml et un volume de D-MEM sans rouge de phénol. Après une incubation de 90 minutes à 37°C sans agitation, les mélanges sont centrifugés 5 minutes à 4 000 g pour éliminer les bactéries et dilués au 1/5 et au 1/10 en eau distillée stérile.
# 100 µl des échantillons réduits et dilués sont distribués dans des séries de 2 puits dans une plaque ELISA (maxicorp, Nunc.). 200 µl du réactif de Griess (mélange ex-temporané volume à volume des solutions de sulfamide à 1,5 g/100 ml de HCl 1,2 N (87,1 mM) - réactif A - et de naphtylènediamine à 0,15 g/100 ml d'eau stérile (5,78 mM) - réactif B -) sont ajoutés.
# Cent autres µl d'échantillon servant de blanc de DO sont distribués et mélangés à 200 µl d'un mélange ex-temporané volume à volume d'eau distillée et du réactif colorimétrique A.
# Après 30 minutes à température ambiante à l'obscurité, la densité optique (DO) des échantillons est lue à 540 nm au lecteur de plaque pour ELISA.
# • Les contrôles du système d'induction iNOS sont composés de : • . Témoin cellules consistant en des macrophages ne recevant que du milieu de culture. • . Témoin d'induction consistant en des macrophages traités par 100 µl de lipopolysaccharide (LPS à 4 µg/ml, Difco) et par 100 µl d'interféron-γ recombinant (IFN-γ à 1 µU/ml, Boerhinger-Mannheim) afin d'activer la iNOS (Schmidt et al., Mol. Pharmacol., 1992, 41, 614-624). Les solutions mères de LPS et de IFN-γont été conservées respectivement à +4°C et à -20°C avant utilisation. • . Témoin d'inhibition spécifique pour prouver que les nitrites dosés proviennent de l'activation de la iNOS. Il consiste à incorporer à la culture un inhibiteur spécifique, la L-NMMA (N^G-monométhyl-L-arginine, Calbiochem) (Hibbs et al., Science, 1987, 235, 473-476) à des concentrations de raison 10 allant de 3 à 300 µM. Cette solution a été conservée sous parties aliquotes à -20°C avant utilisation. • Les contrôles de la réaction de Greiss sont composés de : • . Une solution de nitrate de sodium qui permet de contrôler l'activité nitrate-réductase des bactéries. • . Une gamme étalon de nitrite de sodium qui permet de doser les nitrites dans les échantillons. • Le blanc de DO de la gamme étalon contenant 100 µl d'eau distillée et 200 µl du mélange des réactifs A et B.
# [2] = AVF1 1 x 10^-6 % (10 nM), IFNγ + LPS + L-NMMA (3 µM)
# [3] = AVF1 1 x 10^-6 % (10 nM), IFNγ + LPS + L-NMMA (30 µM)
# [4] = AVF1 1 x 10^-6 % (10 nM), IFNγ + LPS + L-NMMA (300 µM)
# [5] = AVF1 1 x 10^-7 % (1 nM), IFNγ + LPS + L-NMMA (30 µM)
# [6] = AVF1 1 x 10^-7 % (1 nM), IFNγ + LPS + L-NMMA (300 µM)
# [7] = AVF1 1 x 10^-8 % (0,1 nM), IFNγ + LPS + L-NMMA (3 µM)
# [8] = AVF1 1 x 10^-8 % (0,1 nM), IFNγ + LPS + L-NMMA (300 µM)
smiles,measurement,setting,value
"CC(C)(C)c1cc(C(=O)OCCOCCOCCOCCOCCOCCOCCOCCO)cc(C(C)(C)C)c1O [AVF1, 3,5-di-t-butyl-4-hydroxybenzoate d'octaoxyéthylèneglycol]",Remarques (toxicité sur cellules MT4),"cellules MT4; AVF1 dilué à 0,5%",Non toxique (échantillon inoculé à la dilution 1/4)
same,Remarques (toxicité sur cellules MT4),cellules MT4; AVF1 dilué à 1%,Non toxique (échantillon inoculé à la dilution 1/4)
same,Remarques (toxicité sur cellules MT4),cellules MT4; AVF1 dilué à 2%,Non toxique (échantillon inoculé à la dilution 1/4)
same,Concentration moyenne en nitrites en µM sur 2 échantillons,"[1]; AVF1 1 x 10^-6 % (10 nM), IFNγ + LPS","20,9 µM"
same,Concentration moyenne en nitrites en µM sur 2 échantillons,[1]; [2],"5,3 µM"
same,Pourcentage d'inhibition de la production de nitrite,[1]; [2],74%
same,Concentration moyenne en nitrites en µM sur 2 échantillons,[1]; [3],"6,3 µM"
same,Pourcentage d'inhibition de la production de nitrite,[1]; [3],70%
same,Concentration moyenne en nitrites en µM sur 2 échantillons,[1]; [4],"4,8 µM"
same,Pourcentage d'inhibition de la production de nitrite,[1]; [4],77%
same,Concentration moyenne en nitrites en µM sur 2 échantillons,"[1]; AVF1 1 x 10^-6 % (10 nM), cells: Milieu (no activator)","5,0* µM"
same,Concentration moyenne en nitrites en µM sur 2 échantillons,"[1]; AVF1 1 x 10^-7 % (1 nM), IFNγ + LPS","19,5 µM"
same,Concentration moyenne en nitrites en µM sur 2 échantillons,"[1]; AVF1 1 x 10^-7 % (1 nM), IFNγ + LPS + L-NMMA (3 µM)","5,1 µM"
same,Concentration moyenne en nitrites en µM sur 2 échantillons,[1]; [5],"4,9 µM"
same,Pourcentage d'inhibition de la production de nitrite,[1]; [5],76%
same,Concentration moyenne en nitrites en µM sur 2 échantillons,[1]; [6],"5,8 µM"
same,Pourcentage d'inhibition de la production de nitrite,[1]; [6],72%
same,Concentration moyenne en nitrites en µM sur 2 échantillons,"[1]; AVF1 1 x 10^-7 % (1 nM), cells: Milieu (no activator)","4,8* µM"
same,Concentration moyenne en nitrites en µM sur 2 échantillons,"[1]; AVF1 1 x 10^-8 % (0,1 nM), IFNγ + LPS","21,6 µM"
same,Concentration moyenne en nitrites en µM sur 2 échantillons,[1]; [7],"5,0 µM"
same,Pourcentage d'inhibition de la production de nitrite,[1]; [7],76%
same,Concentration moyenne en nitrites en µM sur 2 échantillons,"[1]; AVF1 1 x 10^-8 % (0,1 nM), IFNγ + LPS + L-NMMA (30 µM)","5,2 µM"
same,Concentration moyenne en nitrites en µM sur 2 échantillons,[1]; [8],"5,5 µM"
same,Pourcentage d'inhibition de la production de nitrite,[1]; [8],74%
same,Concentration moyenne en nitrites en µM sur 2 échantillons,"[1]; AVF1 1 x 10^-8 % (0,1 nM), cells: Milieu (no activator)","5,6* µM"
same,induction de monoxyde d'azote (NO) dans les macrophages,"[1]; AVF1 from 10^-6 % downwards, non-activated macrophages, nitrites in supernatants",n'induit pas de monoxyde d'azote (NO)
same,inhibition at 0.01 µM,"[1]; Mus musculus, RAW264.7, AVF1 1 x 10^-6 % (10 nM), IFNγ + LPS, read-out: Pourcentage d'inhibition de la production de nitrite",0%
same,inhibition at 0.001 µM,"[1]; Mus musculus, RAW264.7, AVF1 1 x 10^-7 % (1 nM), IFNγ + LPS, read-out: Pourcentage d'inhibition de la production de nitrite",6%
same,action sur le niveau de production de NO,[1]; macrophages activated by LPS + IFN-γ,n'a aucune action sur le niveau de production
